For 7 compounds, Fu and Kd results are on record in ChEMBL document CHEMBL5036329, “4-Methyl-1,2,3-Triazoles as N-Acetyl-Lysine Mimics Afford Potent BET Bromodomain Inhibitors with Improved Selectivity” (J Med Chem, 2021).

As usually defined, the Kd is the constant that tells how readily two partners part at equilibrium.

A short description of data set [1]: Microsomal stability in human liver microsomes assessed as fraction unbound measured upto 60 mins in presence of NADPH regenerating system by LC-MS analysis. The format is ADME, Microsome. The conditions noted are these: 1 h. In general terms: Liver microsomes are vesicles of endoplasmic reticulum, rich in cytochrome P450 enzymes.
The target in data set [2] is T1, Bromodomain testis-specific protein (Homo sapiens, UniProt Q58F21). The data set can be described thus: Binding affinity to human partial length BRDT BD2 expressed in bacterial expression system assessed as dissociation constant by BROMOscan assay.
In data set [3] the target is T2, Bromodomain-containing protein 3 (Homo sapiens, UniProt Q15059). Kind of data set: Binding affinity to human partial length BRD3 BD2 expressed in bacterial expression system assessed as dissociation constant by BROMOscan assay.
T2 sequence (Q15059 whole entry): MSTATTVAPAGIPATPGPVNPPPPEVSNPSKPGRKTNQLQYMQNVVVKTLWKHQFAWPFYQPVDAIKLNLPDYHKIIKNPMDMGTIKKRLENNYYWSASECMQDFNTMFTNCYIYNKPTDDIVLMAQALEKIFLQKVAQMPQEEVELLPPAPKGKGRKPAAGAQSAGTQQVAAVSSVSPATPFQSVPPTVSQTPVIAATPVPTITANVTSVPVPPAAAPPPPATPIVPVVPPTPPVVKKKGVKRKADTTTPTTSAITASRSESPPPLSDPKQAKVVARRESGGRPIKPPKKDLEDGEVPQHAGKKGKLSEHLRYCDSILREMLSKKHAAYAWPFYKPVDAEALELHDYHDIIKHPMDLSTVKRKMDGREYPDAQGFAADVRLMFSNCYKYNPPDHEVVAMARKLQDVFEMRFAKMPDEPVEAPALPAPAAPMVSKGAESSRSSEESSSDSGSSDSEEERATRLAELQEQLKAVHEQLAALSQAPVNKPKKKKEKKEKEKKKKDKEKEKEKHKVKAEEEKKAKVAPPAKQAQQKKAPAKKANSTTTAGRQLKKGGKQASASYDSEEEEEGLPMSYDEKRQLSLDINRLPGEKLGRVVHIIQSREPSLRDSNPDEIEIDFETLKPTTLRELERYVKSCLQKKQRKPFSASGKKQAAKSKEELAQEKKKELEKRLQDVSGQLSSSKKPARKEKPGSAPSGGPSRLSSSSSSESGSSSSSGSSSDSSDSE
The target in data set [4] is T2, Bromodomain-containing protein 3. The data set can be described thus: Binding affinity to human partial length BRD3 BD1 expressed in bacterial expression system assessed as dissociation constant by BROMOscan assay.
Data set [5] addresses T1, Bromodomain testis-specific protein. The data set can be described thus: Binding affinity to human partial length BRDT BD1 expressed in bacterial expression system assessed as dissociation constant by BROMOscan assay.

As to `Cc1cc(C)cc(Oc2cccc(-c3c(C)nnn3C3CCNCC3)n2)c1`, in data set [1], the Fu worked out at 0.13.

Consider `Cc1cc(C)cc(Nc2nccc(-c3c(-c4ccc(C(F)(F)F)cc4)ncn3C3CCN(CCN)CC3)n2)c1`, for which the Fu in data set [1] was 0.08.

As to `Cc1nnn(C2CCN(CCN(C)C)CC2)c1-c1cccc(Oc2cc(Br)ccc2Br)n1`, the Fu in data set [1] came to 0.13.

In the case of `Cc1cc(C)cc(Oc2cccc(-c3c(C)nnn3C3CCN(CCN(C)C)CC3)n2)c1`, the dissociation constant Kd in data set [2] came out at 250 nM; in data set [3] it was 310 nM; in data set [4], 20 nM; in data set [5], 15 nM. Also, the Fu in data set [1] is recorded as 0.14.

As to `Cc1nnn(C2CCNCC2)c1-c1cccc(Oc2cc(C3CC3)cc(C3CC3)c2)n1`, in data set [1], the Fu was 0.12.

Regarding `Cc1nnn(C2CCNCC2)c1-c1cccc(Oc2cc(Cl)cc(Cl)c2)n1`, in data set [1], the Fu was 0.11.

On to `Cc1nnn(C2CCNCC2)c1-c1cccc(Oc2cc(Br)cc(Br)c2)n1`, for which the Fu in data set [1] is 0.09.
